Data reported in patent publication US20190352341A1, “MODIFIED PEPTIDES AND THEIR USE FOR TREATING SYSTEMIC LUPUS ERYTHEMATOSUS” (IMMUPHARMA FRANCE SA, priority 2018, published 2019).
Several values for one entry are separate records, joined by “and”; a condition that tells them apart may be missing. Equal entries are not always repeated. Numbered stars: 1 amine (or outer) side, 2 acyl side, 3 side chain; on linkers, the order of the positions; unused ones are H or OH. Square brackets hold non-standard residues; d marks the D form. Peptide text beside a SMILES is read from it. ξ: configuration not given here. X1 = CSCC[C@H](NC(=N)[C@H](Cc1c[nH]cn1)N[*:1])C(=O)[*:2]; pS = N[C@@H](COP(=O)(O)O)C(=O)O; Ile(3ξ) = CCC(C)[C@H](N)C(=O)O

What was measured:
[1] = Stability of the peptides at 37° C. (HPLC peak area); assay type: physicochemical; conditions: for 95% of stability (predicted): time to 95% from linear equation; for Stability (%) Linear equation: slope: y = stability %, x = days; for Stability (%): 10% mannitol
Method: The stability of the peptide SEQ ID NO: 1 in which the serine at position 10 is phosphorylated and the methionine at position 4 is oxydized (P140(MO)), and the peptide SEQ ID NO: 1 in which the serine at position 10 is phosphorylated (P140) was measured at 37° C., in a solution of 10% (v/v) mannitol. For each peptide, 3 concentrations have been tested: 200, 100 and 50 μg/mL.
At the indicated time, the integrity of P140 and P140(MO) peptides was measured in saline by high-performance liquid chromatography from the area of the peak corresponding to the intact peptide.
Stability is measured by using the HPLC peak surface.

Balb/c mice = assay: 31-day HDM-induced asthma model, airway response to methacholine (Flexivent); assay type: in vivo, mouse; conditions: for Crs / Ers / Rrs: individual mice
Method: The aim of this study was to evaluate the effect of the P140 phosphopeptide administered systemically (intravenously) in a 31-day model of HDM-induced asthma in mice. The P140 phosphopeptide was solubilized in sterile water (Braun) and 10× concentrate sterile saline was added to adjust osmolarity to 300 mosm. Osmolarity was controlled with a micro osmometer (Löser, type 15) and validated (303 mosm). The P140 phosphopeptide was used in vivo at the dose of 4 mg/kg by intravenous (i.v.) routes. Control animals received equivalent volumes (2 ml/kg) of saline (Table 8).
Nine-week-old male Balb/c mice were sensitized by intranasal (i.n.) administration of HDM extract (Stallergenes): 1 μg in 25 μl saline on days 0, 1, 2, 3, 4, and 10 μg on days 14 and 21. Mice were challenged by i.n. administration of HDM (1 μg) and/or saline on days 28, 29 and 30. Mice were treated by i.v. injection (2 ml/kg) of P140 or solvent on day 25 (see FIG. 14).
Airway response to Methacholine (Flexivent®). On day 31, airway responses to PBS then methacholine were assessed using a forced oscillation technique (Flexivent®, SCIREQ, Montreal, Canada) as described (Daubeuf et al, Bioprotocol, 645, 2013). Mice were anesthetized with an intraperitoneal injection of xylasine (Rompun®; 1 mg/kg), followed fifteen minutes later by an intraperitoneal injection of pentobarbital sodium (3.64 mg/Kg). The trachea was exposed and an 18-gauge metal needle was inserted into the trachea. Airways were connected to a computer-controlled small animal ventilator, and quasi-sinusoidally ventilated with a tidal volume of 10 ml/Kg at a frequency of 150 breaths/min and a positive end-expiratory pressure of 2 cm H2O to achieve a mean respiratory volume close to that of spontaneous breathing. After baseline measurement, each mouse was challenged for 10 sec with an aerosol of PBS generated with an in-line nebulizer and administered directly through the ventilator. Then, aerosolized methacholine (MCh) at 50 mg/ml was administered for 10 sec. The effect of methacholine was calculated as the peak response, i.e. the mean of the three maximal values integrated for calculation of airway resistance (R, cm H20·s·mL^−1), elastance (E, cm H20·mL^−1) and compliance (C, mL·cm H20^−1).
All mice were sensitized to HDM on days 0, 1, 2, 3, 4, 14, 21, and challenged either with saline ([…]) or HDM (challenge with allergen). Results are presented as means±SEM. Differences between groups were tested for statistical significance using Student's t test for inflammatory cells and a two-way ANOVA followed by Bonferroni post-test for airway responses.

[2] = HDM-challenged (HDM + P140), first of two unheaded values (presumably PBS)
[3] = HDM-challenged (HDM + P140), second of two unheaded values (presumably MCh 50 mg/mL)
[4] = chronic asthma (saline-challenged), methacholine 50 mg/ml, P140 i.v. 4 mg/kg day 25
[5] = saline-challenged (chronic asthma), first of two unheaded values (presumably PBS)
[6] = saline-challenged (chronic asthma), second of two unheaded values (presumably MCh 50 mg/mL)

CCC(C)[C@H](NC(=O)[C@H](Cc1ccccc1)NC(=O)[C@H](C)NC(=O)[C@H](Cc1ccc(O)cc1)NC(=O)CNC(=O)[C@H](CCCNC(=N)N)NC(=O)[C@@H]1CCCN1C(=O)[C@H](CCCCN)NC(=O)CNC(=O)[C@H](COP(=O)(O)O)NC(=O)[C@H](CCCNC(=N)N)NC(=O)[C@H](CCCCN)NC(=O)[C@H](CO)NC(=O)[C@H](Cc1ccc(O)cc1)NC(=O)[C@@H](NC(=O)[C@H](CCSC)NC(=N)[C@H](Cc1c[nH]cn1)NC(=O)[C@@H](NC(=O)[C@@H](N)CCCNC(=N)N)C(C)CC)C(C)C)C(=O)N[C@@H](CCC(=O)O)C(=O)N[C@@H](Cc1ccc(O)cc1)C(=O)O (some centres unmarked) [Compound P140] (H-R[Ile(3ξ)][X1]VYSKR[pS]GKPRGYAF[Ile(3ξ)]EY-OH)
Stability (%) Linear equation: intercept ([1]; 50 μg/mL): 98.299 | 95% of stability (predicted) ([1]; 50 μg/mL): 1 months | Stability (%) Linear equation: slope ([1]; 50 μg/mL): y = −0.099x + | Stability (%) Linear equation: intercept ([1]; 100 μg/mL): 99.25 | 95% of stability (predicted) ([1]; 100 μg/mL): 2 months | Stability (%) Linear equation: slope ([1]; 100 μg/mL): y = −0.0612x + | Stability (%) Linear equation: intercept ([1]; 200 μg/mL): 99.535 | 95% of stability (predicted) ([1]; 200 μg/mL): 6 months | Stability (%) Linear equation: slope ([1]; 200 μg/mL): y = −0.0238x + | Stability (%) ([1]; 50 μg/mL, day 0): 100% | Stability (%) ([1]; 50 μg/mL, day 20): 95.5% | Stability (%) ([1]; 50 μg/mL, day 40): 93.2% | Stability (%) ([1]; 50 μg/mL, day 60): 91.5% | Stability (%) ([1]; 50 μg/mL, day 80): 90.3% | Stability (%) ([1]; 50 μg/mL, day 100): 89.6% | Stability (%) ([1]; 100 μg/mL, day 0): 100% | Stability (%) ([1]; 100 μg/mL, day 20): 97.5% | Stability (%) ([1]; 100 μg/mL, day 40): 96.2% | Stability (%) ([1]; 100 μg/mL, day 60): 95.5% | Stability (%) ([1]; 100 μg/mL, day 80): 94.5% | Stability (%) ([1]; 100 μg/mL, day 100): 93.4% | Stability (%) ([1]; 200 μg/mL, day 0): 100% | Stability (%) ([1]; 200 μg/mL, day 20): 98.7% | Stability (%) ([1]; 200 μg/mL, day 40): 98.5% | Stability (%) ([1]; 200 μg/mL, day 60): 97.9% | Stability (%) ([1]; 200 μg/mL, day 80): 97.6% | Stability (%) ([1]; 200 μg/mL, day 100): 97.4% | Crs (Balb/c mice; [2]): 0.0554 mL/cmH2O and 0.0514 mL/cmH2O and 0.0528 mL/cmH2O and 0.0566 mL/cmH2O and 0.0492 mL/cmH2O and 0.0458 mL/cmH2O and 0.0552 mL/cmH2O and 0.0589 mL/cmH2O | Ers (Balb/c mice; [2]): 18.0582 cmH2O/mL and 19.4433 cmH2O/mL and 18.9515 cmH2O/mL and 17.6781 cmH2O/mL and 20.3326 cmH2O/mL and 21.8367 cmH2O/mL and 18.1106 cmH2O/mL and 16.9723 cmH2O/mL | Rrs (Balb/c mice; [2]): 0.6405 cmH2O · s/mL and 0.6092 cmH2O · s/mL and 0.7972 cmH2O · s/mL and 0.5185 cmH2O · s/mL and 0.6804 cmH2O · s/mL and 0.6365 cmH2O · s/mL and 0.4744 cmH2O · s/mL and 0.5456 cmH2O · s/mL | Crs (Balb/c mice; [3]): 0.0146 mL/cmH2O and 0.0075 mL/cmH2O and 0.0062 mL/cmH2O and 0.0065 mL/cmH2O and 0.0101 mL/cmH2O and 0.0060 mL/cmH2O and 0.0138 mL/cmH2O and 0.0081 mL/cmH2O | Ers (Balb/c mice; [3]): 79.8018 cmH2O/mL and 148.4985 cmH2O/mL and 188.1151 cmH2O/mL and 219.9720 cmH2O/mL and 125.7688 cmH2O/mL and 173.4582 cmH2O/mL and 72.6033 cmH2O/mL and 131.8035 cmH2O/mL | Rrs (Balb/c mice; [3]): 5.6421 cmH2O · s/mL and 10.3886 cmH2O · s/mL and 11.9654 cmH2O · s/mL and 10.5419 cmH2O · s/mL and 8.8810 cmH2O · s/mL and 13.0087 cmH2O · s/mL and 7.0705 cmH2O · s/mL and 9.7688 cmH2O · s/mL | Airway resistance, elastance or compliance (Balb/c mice; allergen (HDM)-challenged mice, vs solvent group): no effect | Airway compliance, change vs solvent group (Balb/c mice; [4]): +115% | Elastance, change vs solvent group (Balb/c mice; [4]): −65% | Airway resistance, change vs solvent group (Balb/c mice; chronic asthma (saline-challenged), methacholine 50 mg/ml, P140 i.v. 4 mg/kg day 25, non-significant): −42% | Crs (Balb/c mice; [5]): 0.0545 mL/cmH2O and 0.0498 mL/cmH2O and 0.0569 mL/cmH2O and 0.0541 mL/cmH2O and 0.0650 mL/cmH2O | Ers (Balb/c mice; [5]): 18.3671 cmH2O/mL and 20.0811 cmH2O/mL and 17.5777 cmH2O/mL and 18.4893 cmH2O/mL and 15.3975 cmH2O/mL | Rrs (Balb/c mice; [5]): 0.5590 cmH2O · s/mL and 0.8945 cmH2O · s/mL and 0.5926 cmH2O · s/mL and 0.8074 cmH2O · s/mL and 0.4418 cmH2O · s/mL | Crs (Balb/c mice; [6]): 0.0304 mL/cmH2O and 0.0132 mL/cmH2O and 0.0380 mL/cmH2O and 0.0238 mL/cmH2O and 0.0370 mL/cmH2O | Ers (Balb/c mice; [6]): 33.3720 cmH2O/mL and 84.9688 cmH2O/mL and 26.3200 cmH2O/mL and 42.4174 cmH2O/mL and 28.6047 cmH2O/mL | Rrs (Balb/c mice; [6]): 4.1067 cmH2O · s/mL and 9.4002 cmH2O · s/mL and 2.2229 cmH2O · s/mL and 4.0926 cmH2O · s/mL and 2.1844 cmH2O · s/mL | Baseline airway resistance, elastance and compliance after PBS inhalation (Balb/c mice; saline-challenged mice, P140 i.v. 4 mg/kg day 25, vs solvent-treated mice): no effect on any parameter
